According to US8202885B2, “Bridged six-membered ring compounds” (Actelion Pharmaceuticals Ltd., priority 2007, dated 2012):
pEC50, pIC50: −log10 of the molar value.

Tests used:
isolated mouse hearts = assay: Effect on isolated hearts according to the Langendorff method (Lgdff)
Protocol: Effect on Isolated Hearts According to the Langendorff Method (Lgdff)
The compounds were tested for their potential to reduce blood pressure and their effect on the contractility of the heart muscle. EC50 values on isolated mouse hearts were determined according to Literature (Doring H J., The isolated perfused heart according to Langendorff technique—function—application, Physiol. Bohemoslov. 1990, 39(6), 481-504; Kligfield P, Horner H, Brachfeld N., A model of graded ischemia in the isolated perfused rat heart, J. Appl. Physiol. 1976 June, 40(6), 1004-8).
51 example compounds have been measured using the procedure described above for the Langendorff experiment. The measured EC50 values were in the range of 4 to 669 nM with an average of 37 nM.

[1] = tested on: human Cav3.1 Cav3.2 or Cav3.3 channel; assay: In vitro assay T channel (FLIPR calcium fluorescence); assay type: cell-based; conditions: HEK293 cells expressing human Cav3.1, Cav3.2 or Cav3.3; 10 mM Ca2+-induced fluo-4 fluorescence; determined up to 10 μM; read-out: T channel antagonistic activity IC50
In short: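 IC50 (nM) is the antagonist concentration halving the area under the fluorescence peak evoked by 10 mM Ca2+, relative to vehicle, with testing up to 10 μM. Fluo-4-loaded HEK293 cells expressing each human Cav3 subtype received compound 3 min before Ca2+ addition (TEA-based buffer, pH 7.2); signal monitored 8 min at 2 s intervals.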

Row | Compound | pEC50 (isolated mouse hearts) | pIC50 [1]
1 | CC(C)C(=O)O[C@@]1(CCN(C)CCCc2nc3ccccc3[nH]2)C[C@H]2CC[C@@H]1C=C2c1cccs1 (relative stereo) [Example 21A, rac-Isobutyric acid (1R*,2R*,4R*)-2-(2-{[3-(1H-benzoimidazol-2-yl)-propyl]-methyl-amino}-ethyl)-5-thiophen-2-yl-bicyclo[2.2.2]oct-5-en-2-yl ester] | 8.00 | 5.62
2 | CC(C)C(=O)O[C@@]1(CCN(C)CCCc2cccnc2)C[C@H]2CC[C@@H]1C=C2c1ccccc1 (relative stereo) [Example 46A, rac-Isobutyric acid (1R*,2R*,4R*)-2-{2-[methyl-(3-pyridin-3-yl-propyl)-amino]-ethyl}-5-phenyl-bicyclo[2.2.2]oct-5-en-2-yl ester] | 8.05 | 5.59
3 | COc1cccc(C2=C[C@H]3CC[C@@H]2C[C@]3(CCN(C)CCCc2nc3ccccc3[nH]2)OC(=O)C(C)C)c1 (relative stereo) [Example 2A, rac-Isobutyric acid (1R*,2R*,4R*)-2-(2-{[3-(1H-benzoimidazol-2-yl)-propyl]-methyl-amino}-ethyl)-5-(3-methoxy-phenyl)-bicyclo[2.2.2]oct-5-en-2-yl ester] | 7.82 | 5.64
4 | CCOc1ccc(CCCN(C)CC[C@]2(OC(=O)C(C)C)C[C@H]3CC[C@@H]2C=C3c2ccccc2)cc1OCC (relative stereo) [Example 40A, rac-Isobutyric acid (1R*,2R*,4R*)-2-(2-{[3-(3,4-diethoxy-phenyl)-propyl]-methyl-amino}-ethyl)-5-phenyl-bicyclo[2.2.2]oct-5-en-2-yl ester] | – | 5.05
5 | COc1cccc2[nH]c(CCCN(C)CC[C@]3(OC(=O)CC(F)(F)F)C[C@H]4CC[C@@H]3C=C4c3ccccc3)nc12 (relative stereo) [Example 26C, rac-3,3,3-Trifluoro-propionic acid (1R*,2R*,4R*)-2-(2-{[3-(4-methoxy-1H-benzoimidazol-2-yl)-propyl]-methyl-amino}-ethyl)-5-phenyl-bicyclo[2.2.2]oct-5-en-2-yl ester] | 8.40 | 5.33
6 | CCOc1ccc(CCCN(C)CC[C@]2(O)C[C@H]3CC[C@@H]2C=C3c2ccccc2)cc1OCC (relative stereo) [Example 40, rac-(1R*,2R*,4R*)-2-(2-{[3-(3,4-Diethoxy-phenyl)-propyl]-methyl-amino}-ethyl)-5-phenyl-bicyclo[2.2.2]oct-5-en-2-ol] | – | 5.48
7 | COc1cccc2[nH]c(CCCN(C)CCC3(OC(=O)C(C)C)CC4CCC3C=C4c3ccccc3)nc12 [Example 55A, Isobutyric acid (1R,2R,4R)-2-(2-{[3-(4-methoxy-1H-benzoimidazol-2-yl)-propyl]-methyl-amino}-ethyl)-5-phenyl-bicyclo[2.2.2]oct-5-en-2-yl ester or isobutyric acid (1S,2S,4S)-2-(2-{[3-(4-methoxy-1H-benzoimidazol-2-yl)-propyl]-methyl-amino}-ethyl)-5-phenyl-bicyclo[2.2.2]oct-5-en-2-yl ester] | – | 5.97
8 | COc1ccc(C2=CC3CCC2CC3(O)CCN(C)CCCc2nc3ccccc3[nH]2)cc1 (racemic) [Example 22, rac-(1R*,2R*,4R*)-2-(2-{[3-(1H-Benzoimidazol-2-yl)-propyl]-methyl-amino}-ethyl)-5-(4-methoxy-phenyl)-2-yl-bicyclo[2.2.2]oct-5-en-2-ol] | – | < 5.00
9 | CC1=C(c2ccccc2)[C@H]2CC[C@@H]1C[C@]2(CCN(C)CCCc1nc2ccccc2[nH]1)OC(=O)C(C)C (relative stereo) [Example 17A, rac-Isobutyric acid (1R*,2R*,4R*)-2-(2-{[3-(1H-benzoimidazol-2-yl)-propyl]-methyl-amino}-ethyl)-5-methyl-6-phenyl-bicyclo[2.2.2]oct-5-en-2-yl ester] | 7.92 | 5.86
10 | CC(C)C(=O)O[C@@]1(CCN(C)CCCc2nc3ccccc3[nH]2)C[C@@H]2C=C[C@H]1CC2 (relative stereo) [Example 75A, rac-Isobutyric acid (1R*,2R*,4R*)-2-(2-{[3-(1H-benzoimidazol-2-yl)-propyl]-methyl-amino}-ethyl)-bicyclo[2.2.2]oct-5-en-2-yl ester] | – | 5.75
11 | CCOc1cccc2nc(CCCN(C)CC[C@]3(O)C[C@H]4CC[C@@H]3C=C4c3ccccc3)[nH]c12 (relative stereo) [Example 31, rac-(1R*,2R*,4R*)-2-(2-{[3-(7-Ethoxy-1H-benzoimidazol-2-yl)-propyl]-methyl-amino}-ethyl)-5-phenyl-bicyclo[2.2.2]oct-5-en-2-ol] | – | 5.59
12 | COc1cccc2[nH]c(CCCN(C)CC[C@]3(OC(=O)C(C)(C)OC)C[C@H]4CC[C@@H]3C=C4c3ccccc3)nc12 (relative stereo) [Example 26F, rac-2-Methoxy-2-methyl-propionic acid (1R*,2R*,4R*)-2-(2-{[3-(4-methoxy-1H-benzoimidazol-2-yl)-propyl]-methyl-amino}-ethyl)-5-phenyl-bicyclo[2.2.2]oct-5-en-2-yl ester] | – | 6.02
13 | COc1ccc(OC)c2[nH]c(CCCN(C)CC[C@]3(OC(=O)C(C)C)C[C@H]4CC[C@@H]3C=C4c3ccccc3)nc12 (relative stereo) [Example 61A, rac-Isobutyric acid (1R*,2R*,4R*)-2-(2-{[3-(4,7-dimethoxy-1H-benzoimidazol-2-yl)-propyl]-methyl-amino}-ethyl)-5-phenyl-bicyclo[2.2.2]oct-5-en-2-yl ester] | 8.30 | 6.24
14 | CCCC1=C(C)[C@H]2CC[C@@H]1C[C@]2(CCN(C)CCCc1nc2ccccc2[nH]1)OC(=O)C(C)C (relative stereo) [Example 16A, rac-Isobutyric acid (1R*,2R*,4R*)-2-(2-{[3-(1H-benzoimidazol-2-yl)-propyl]-methyl-amino}-ethyl)-6-methyl-5-propyl-bicyclo[2.2.2]oct-5-en-2-yl ester] | – | 5.62
15 | CC(C)C(=O)O[C@@]1(CCN(C)CCCc2nc3ccccc3[nH]2)C[C@H]2CC[C@@H]1C=C2c1ccccc1 (relative stereo) [Example 1A, rac-Isobutyric acid (1R*,2R*,4R*)-2-(2-{[3-(1H-Benzoimidazol-2-yl)-propyl]-methyl-amino}-ethyl)-5-phenyl-bicyclo[2.2.2]oct-5-en-2-yl ester] | – | 5.31
